Target: T1, human Keap1 Kelch (Homo sapiens, UniProt Q14145)
T1 construct: human Keap1 Kelch domain (residue 321-609, UniProt Q14145); made in house; host or cells: Escherichia coli BL21 (DE3) pLysS, pRSET A vector
Assay: Surface plasmon resonance (SPR), immobilized Keap1 Kelch domain
Format: binding
Settings: 25 °C, Rmax constrained to 15 RU (theoretical max)
Text: 768 fragments from the commercial available (Enamine) DSI-poised library were screened against the human Keap1 Kelch domain using X-ray crystallography. After data collection and processing (example 3), several crystal structures with high-resolution (1.0-2.1 Å) were identified showing fragments bound to the Keap1 binding pocket. […] To confirm XCF #0252 as a hit and determine its affinity to human Keap1 Kelch, this fragment was resynthesized (Scheme 1) and tested by surface plasmon resonance (SPR). In SPR, a dose-dependent activity was observed and an affinity of Kd=0.6 mM was measured (FIG. 2B).
SPR measurements were performed at 25° C. using a Pioneer FE FE instrument (Sartorius). The Keap1 Kelch domain was covalently immobilized on the biosensor chip surface by amine coupling to a level of 2150 RU, using a 10 mM NaOAc pH 5 immobilization buffer. The 1×HBSTET buffer supplemented with 4% DMSO was used as running buffer for the experiments. Microcalibration was performed for all SPR experiments to adjust for DMSO bulk effects (low limit of 3% and a high limit of 4%). The compound was injected in a concentration series of twofold serial dilutions ([…]-1000 μM) using standard injections at a 30 μL/min flow rate. The data were analyzed using Qdat Data Analysis Tool version 2.6.3.0 (Sartorius). […]

T1 sequence (Q14145 321-609): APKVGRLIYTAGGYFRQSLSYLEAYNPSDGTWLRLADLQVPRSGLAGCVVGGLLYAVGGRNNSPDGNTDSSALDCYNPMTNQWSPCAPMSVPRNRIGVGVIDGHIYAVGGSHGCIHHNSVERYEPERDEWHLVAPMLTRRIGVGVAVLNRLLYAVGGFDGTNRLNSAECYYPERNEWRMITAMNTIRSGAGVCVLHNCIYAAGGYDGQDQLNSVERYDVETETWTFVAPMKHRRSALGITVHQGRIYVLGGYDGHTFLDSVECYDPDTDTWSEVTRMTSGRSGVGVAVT

Kd: 600 µM
Structure (SMILES): O=C(COc1ccccc1)NC1CCCCC1 [XCF #0252, N-Cyclohexyl-2-phenoxyacetamide]

— US20260193170A1 (University of Copenhagen, priority 2022, published 2026)
